Reference: patent US10689354B2, “Aminoazole derivative” (Teijin Pharma Limited, priority 2015, dated 2020)

Tests used:
[1] = molecular target: T1, human androgen receptor (Homo sapiens, UniProt P10275); test: Reporter assay of an androgen receptor responsive sequence (luciferase, transiently transfected HEK293 cells); format: cell-based; details: 24 hours incubation, relative to activity of 100 nM DHT, read-out: AR transcriptive activity (pEC50) (converted)
T1 construct: expressed in transfected cells; host or cells: HEK293
T1 sequence (P10275 1-920): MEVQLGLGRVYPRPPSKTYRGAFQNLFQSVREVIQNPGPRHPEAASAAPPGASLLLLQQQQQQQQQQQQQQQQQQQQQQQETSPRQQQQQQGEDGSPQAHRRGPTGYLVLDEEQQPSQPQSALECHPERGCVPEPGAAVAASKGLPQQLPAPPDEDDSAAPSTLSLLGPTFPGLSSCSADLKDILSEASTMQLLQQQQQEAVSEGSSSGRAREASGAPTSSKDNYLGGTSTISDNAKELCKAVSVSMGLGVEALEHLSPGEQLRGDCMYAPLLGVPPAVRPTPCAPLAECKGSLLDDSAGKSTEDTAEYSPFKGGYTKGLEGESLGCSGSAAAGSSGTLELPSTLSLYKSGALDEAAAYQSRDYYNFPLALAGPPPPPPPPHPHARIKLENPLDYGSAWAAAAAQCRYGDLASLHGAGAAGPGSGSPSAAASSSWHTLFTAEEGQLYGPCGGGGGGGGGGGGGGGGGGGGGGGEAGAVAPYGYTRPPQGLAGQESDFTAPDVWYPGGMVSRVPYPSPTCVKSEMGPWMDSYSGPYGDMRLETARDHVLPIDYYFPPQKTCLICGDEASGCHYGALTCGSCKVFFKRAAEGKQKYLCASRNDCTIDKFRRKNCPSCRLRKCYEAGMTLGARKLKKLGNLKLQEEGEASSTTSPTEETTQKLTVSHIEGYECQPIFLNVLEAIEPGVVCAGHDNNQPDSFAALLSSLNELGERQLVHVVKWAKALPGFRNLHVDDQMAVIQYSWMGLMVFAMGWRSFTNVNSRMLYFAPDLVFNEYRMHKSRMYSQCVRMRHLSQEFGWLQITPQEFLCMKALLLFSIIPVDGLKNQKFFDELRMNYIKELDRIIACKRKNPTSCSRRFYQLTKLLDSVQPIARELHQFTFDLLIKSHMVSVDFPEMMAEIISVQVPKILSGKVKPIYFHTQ
How it was run: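 HEK293 cells transiently transfected for 3 h with ARE-firefly luciferase, full-length human AR and TK-Renilla plasmids, then exposed to compound for 24 h at 37 °C in 5% charcoal-treated FBS/DMEM. Dual-Glo luminescence read; pEC50 from 4-parameter fit relative to 100 nM DHT.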

[2] = molecular target: T2, androgen receptor (AR-LBD) (Rattus norvegicus, UniProt P15207); test: Evaluation of androgen receptor affinity (PolarScreen Androgen Receptor Competitor Assay Kit, Red; fluorescence polarization); details: 22° C. for 5 hours, relative to binding rate of 1 μM DHT, read-out: AR affinity (pEC50) (converted)
T2 construct: 5 μL of 2×AR-LBD/Fluoromone AL Red Complex contained in the kit; purchased Invitrogen
T2 sequence (P15207 651-882 limits assumed): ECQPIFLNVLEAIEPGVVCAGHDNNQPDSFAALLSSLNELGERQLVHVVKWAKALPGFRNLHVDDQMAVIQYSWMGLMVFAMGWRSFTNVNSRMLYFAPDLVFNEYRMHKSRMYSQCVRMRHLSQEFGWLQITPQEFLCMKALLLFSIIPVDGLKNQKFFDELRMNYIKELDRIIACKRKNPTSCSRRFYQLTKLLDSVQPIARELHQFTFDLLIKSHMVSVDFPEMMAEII
How it was run: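 Fluorescence polarization read-out after 5 h at 22° C of compound with a red-fluorophore-labelled AR-LBD complex. Displacement is scaled against 1 μM DHT, and the log reciprocal of the concentration reaching half that effect gives pEC50 via four-parameter curve fitting.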

EC50 [1] [µM] | EC50 [2] [µM] | Compound
1 | 0.0316 | CCS(=O)(=O)NC(=O)c1nc(N(CCc2ccc(C#N)cc2)Cc2ccc(OC(F)(F)F)cc2)sc1C [Compound 726, 2-[2-(4-cyanophenyl)ethyl-[[4-(trifluoromethoxy)phenyl]methyl]amino]-N-ethylsulfonyl-5-methyl-thiazole-4-carboxamide]
> 10 | 0.1 | Cc1sc(N(CCc2ccc(C#N)cc2)CC2CCCCC2)nc1C(=O)NS(=O)(=O)Cc1cccnc1 [Compound 725, 2-[2-(4-cyanophenyl)ethyl-(cyclohexylmethyl)amino]-5-methyl-N-(3-pyridylmethylsulfonyl)thiazole-4-carboxamide]
0.251 | 0.2 | COCCCS(=O)(=O)NC(=O)c1nc(N(Cc2ccc(Cl)cn2)c2ccc(C#N)cc2)sc1C [Compound 163, 2-[N-[(5-chloro-2-pyridyl)methyl]-4-cyano-anilino]-N-(3-methoxypropylsulfonyl)-5-methyl-thiazole-4-carboxamide]
2.51 | 0.126 | Cc1sc(N(CCc2ccc(C#N)cc2)Cc2ccc(Cl)cc2)nc1C(=O)NS(=O)(=O)C(F)(F)F [Compound 715, 2-[(4-chlorophenyl)methyl-[2-(4-cyanophenyl)ethyl]amino]-5-methyl-N-(trifluoromethylsulfonyl)thiazole-4-carboxamide]
1.26 | 0.126 | Cc1sc(N(CC2COc3ccccc3C2)c2ccc(C#N)cc2)nc1C(=O)NS(C)(=O)=O (stereo not drawn) [Compound 510, 2-[N-(chroman-3-ylmethyl)-4-cyano-anilino]-5-methyl-N-methylsulfonyl-thiazole-4-carboxamide]
0.501 | 0.0398 | Cc1sc(N(Cc2ccccc2)c2ccc(C#N)cc2)nc1C(=O)NS(=O)(=O)Cc1ccccc1 [Compound 374, 2-(N-benzyl-4-cyano-anilino)-N-benzylsulfonyl-5-methyl-thiazole-4-carboxamide]
0.0631 | 0.0158 | COCCCS(=O)(=O)NC(=O)c1nc(N(Cc2ccc(Cl)c(Cl)c2)c2ccc(C#N)cc2)sc1C [Example 190, 2-[4-cyano-N-[(3,4-dichlorophenyl)methyl]anilino]-N-(3-methoxypropylsulfonyl)-5-methyl-thiazole-4-carboxamide]
0.251 | 0.0316 | COCCCS(=O)(=O)NC(=O)c1nc(N(CCc2ccc(C#N)cc2)Cc2ccc(Cl)cc2)sc1C [Compound 739, 2-[(4-chlorophenyl)methyl-[2-(4-cyanophenyl)ethyl]amino]-N-(3-methoxypropylsulfonyl)-5-methyl-thiazole-4-carboxamide]
> 10 | 0.158 | COCCCS(=O)(=O)NC(=O)c1nc(N(Cc2ccccc2)c2ccc(C#N)cc2)sc1C1CC1 [Compound 664, 2-(N-benzyl-4-cyano-anilino)-5-cyclopropyl-N-(3-methoxypropylsulfonyl)thiazole-4-carboxamide]
1 | 0.126 | Cc1sc(N(Cc2ccc(C#N)cc2)c2ccc(C#N)cc2)nc1C(=O)NS(C)(=O)=O [Compound 10, 2-[4-cyano-N-[(4-cyanophenyl)methyl]anilino]-5-methyl-N-methylsulfonyl-thiazole-4-carboxamide]
0.126 | 0.0631 | COc1cccc(CN(c2ccc(C#N)cc2)c2nc(C(=O)NS(C)(=O)=O)c(C)s2)c1 [Compound 3, 2-[4-cyano-N-[(3-methoxyphenyl)methyl]anilino]-5-methyl-N-methylsulfonyl-thiazole-4-carboxamide]

Second part, the compound before the results:

Compound | EC50 [1] [µM] | EC50 [2] [µM]
CS(=O)(=O)NC(=O)c1nc(N(Cc2cccc(F)c2)c2ccc(C#N)cc2)sc1Br [Example 243, 5-bromo-2-[4-cyano-N-[(3-fluorophenyl)methyl]anilino]-N-methylsulfonyl-thiazole-4-carboxamide] | 0.0631 | 0.0501
Cc1sc(N(Cc2nc(C3CC3)no2)c2ccc(C#N)cc2)nc1C(=O)NS(C)(=O)=O [Example 196, 2-[4-cyano-N-[(3-cyclopropyl-1,2,4-oxadiazol-5-yl)methyl]anilino]-5-methyl-N-methylsulfonyl-thiazole-4-carboxamide] | 1.58 | 0.631
CS(=O)(=O)NC(=O)c1nc(N(Cc2cccc(Cl)c2)c2ccc(C#N)cc2)sc1Cl [Example 268, 5-chloro-2-[N-[(3-chlorophenyl)methyl]-4-cyano-anilino]-N-methylsulfonyl-thiazole-4-carboxamide] | 0.0631 | 0.0501
Cc1sc(N(Cc2ccccc2)c2ccc3nccnc3c2)nc1C(=O)NS(C)(=O)=O [Compound 744, 2-[benzyl(quinoxalin-6-yl)amino]-5-methyl-N-methylsulfonyl-thiazole-4-carboxamide] | 1.26 | 0.316
COCCCS(=O)(=O)NC(=O)c1nc(N(CCc2ccc(OC(F)(F)F)cc2)Cc2nc(C3CC3)no2)oc1C [Compound 563, 2-[(3-cyclopropyl-1,2,4-oxadiazol-5-yl)methyl-[2-[4-(trifluoromethoxy)phenyl]ethyl]amino]-N-(3-methoxypropylsulfonyl)-5-methyl-oxazole-4-carboxamide] | 1.58 | 0.0794
Cc1sc(N(Cc2ccc(C(F)(F)F)c(C#N)c2)c2ccc(C#N)cc2)nc1C(=O)NS(C)(=O)=O [Example 187, 2-[4-cyano-N-[[3-cyano-4-(trifluoromethyl)phenyl]methyl]anilino]-5-methyl-N-methylsulfonyl-thiazole-4-carboxamide] | 0.0794 | 0.0631
Cc1oc(N(Cc2ccc(F)cc2)c2ccc(C#N)cc2)nc1C(=O)NS(C)(=O)=O [Compound 610, 2-[4-cyano-N-[(4-fluorophenyl)methyl]anilino]-5-methyl-N-methylsulfonyl-oxazole-4-carboxamide] | 2.51 | 0.1
CS(=O)(=O)NC(=O)c1nc(N(Cc2ccc(C(F)(F)F)cc2)c2ccc(C#N)cc2)sc1Cl [Example 272, 5-chloro-2-[4-cyano-N-[[4-(trifluoromethyl)phenyl]methyl]anilino]-N-methylsulfonyl-thiazole-4-carboxamide] | 0.0251 | 0.0316
CS(=O)(=O)NC(=O)c1nc(N(Cc2ccc(F)cc2)c2ccc(C#N)cc2)sc1Br [Example 244, 5-bromo-2-[4-cyano-N-[(4-fluorophenyl)methyl]anilino]-N-methylsulfonyl-thiazole-4-carboxamide] | 0.0398 | 0.0631
Cc1sc(N(Cc2ccc(OC(F)(F)F)cc2)c2ccc(C(F)(F)F)nc2)nc1C(=O)NS(C)(=O)=O [Compound 471, 5-methyl-N-methylsulfonyl-2-[[4-(trifluoromethoxy)phenyl]methyl-[6-(trifluoromethyl)-3-pyridyl]amino]thiazole-4-carboxamide] | 1 | 0.1
Cc1sc(N(Cc2ccc(C(F)(F)F)c(F)c2)c2ccc(C#N)cc2)nc1C(=O)NS(C)(=O)=O [Example 167, 2-[4-cyano-N-[[3-fluoro-4-(trifluoromethyl)phenyl]methyl]anilino]-5-methyl-N-methylsulfonyl-thiazole-4-carboxamide] | 0.0316 | 0.0251
CS(=O)(=O)NC(=O)c1nc(N(Cc2ccccc2)c2ccc(C#N)cc2)sc1C(F)(F)F [Example 230, 2-(N-benzyl-4-cyano-anilino)-N-methylsulfonyl-5-(trifluoromethyl)thiazole-4-carboxamide] | 1.26 | 0.126
COc1ccccc1CN(c1ccc(C#N)cc1)c1nc(C(=O)NS(C)(=O)=O)c(Cl)s1 [Example 270, 5-chloro-2-[4-cyano-N-[(2-methoxyphenyl)methyl]anilino]-N-methylsulfonyl-thiazole-4-carboxamide] | 0.251 | 0.0794
